Measurements reported in PMC3163364, “Preformulation Studies of Zidovudine Derivatives: Acid Dissociation Constants, Differential Scanning Calorimetry, Thermogravimetry, X-Ray Powder Diffractometry and Aqueous Stability Studies” (Scientia Pharmaceutica, 2011).
Like-named read-outs stand apart in the source and are kept apart here.

What was measured:
[1] = aqueous stability in buffers of different pH at 60 °C, HPLC; type: physicochemical; parameters: key to Aqueous stability: Stable: degradation products by HPLC were not observed after 80 h of experiment; Unstable: The determination was not possible due to a rapid decomposition; details: for half-life at 0.5 mM: aqueous buffer, read-out: t½
Excerpt: Table 2 lists the pH media, experimental rate constants (kobs, when it could be determined) and their corresponding half-life times (t½).
The aqueous stability of AZT and their derivatives 2–6 was examined at different pH values: pH 1.0 (hydrochloric acid-potassium chloride); pH 2.6 (citric acid-sodium phosphate monobasic); pH 7.4 (sodium phosphate dibasic); pH 9.4 (sodium hydrogen carbonate-sodium hydroxide) and pH 13.2 (potassium chloride-sodium hydroxide). The buffer concentrations were 0.1 mol L^−1 and the ionic strength (μ) of the buffers was adjusted to 0.1 with calculated amount of sodium chloride (NaCl). All buffer solutions were prepared with Milli Q water. The pH of each solution was determined using a GLP 21 (Crison Instruments) pHmeter. Stock solutions (5 × 10^−5 mol mL^−1) of each compound were prepared in DMSO prior to use, with 10 μL of the stock solution being added to 990 μL of buffer, and the vials placed in a water bath at 60 °C during all the experiment. Each vial was withdrawn at predetermined time intervals, and immediately stored at −18 °C until being used. For their analysis, the samples were left to defrost, and the aliquots of 100 μL were sampled and added to 400 μL of MeOH at 25 °C. Then, the solution was analyzed by HPLC to determine the rate of disappearance of each compound.
Samples were analyzed using an HPLC system Agilent® 1100 equipped with Phenomenex® column: Hypersil ODS 5 μ particle diameter (4.6 × 250 mm). Detection was carried out with an UV detector at λ = 267 nm, using the following three solvent systems as mobile phases with a flow rate of 1 mL min^−1 at 35 °C: A); 50% phosphate buffer (pH 7.5, 0.02 mol L^−1), 50% MeOH and 2% THF; B) 60% phosphate buffer (pH 7.5, 0.02 mol L^−1), 40% MeOH and 2% THF; and; C) 65% phosphate buffer (pH 7.5, 0.02 mol L^−1), 35% MeOH and 2% THF to obtain an adequate peak separation.

[2] = Differential Scanning Calorimetry (DSC) and Thermogravimetry (TG); type: physicochemical; details: for DSC exothermic decomposition peak: accompanied by weight loss in TG, nitrogen atmosphere, 25–300 °C; for glass transition, small DSC endothermic peak (T onset): extrapolated onset temperature
Procedure: Compounds 2, 4, 5 and 6 also presented an exothermic decomposition peak above 150 °C, which is accompanied by a weight loss in the respective TG curves (Figure 3).
(§1) DSC measurements were carried out using a 2920 modulated DSC (TA Instrument). The temperature axis and the cell constant of the DSC were calibrated with indium. Weighed samples (1.5–3 mg, C-33 Microbalance, Cahan) were scanned in covered aluminium (Al) pans under a dynamic dry nitrogen atmosphere (50 mL min^−1) starting at 25 °C and raising the temperature in 5 °C steps until reaching 300 °C. TG measurements were performed with a TA Instrument Hi-res TG 2950 (TA Instrument). Samples (1.5–3 mg) were weighed in Al pans, starting at 25 °C and raising the temperature in 5 °C steps until reaching 300 °C, under a dynamic dry nitrogen atmosphere (50 mL min^−1). The Universal Analysis Version 2.5H software was used for both measurements. The XRPD patterns were determined at around 20 °C using a diffractometer (Miniflex 2000, Rigaku), with CuKα radiation (λ= 1.5418 Å) being obtained by Ni-filtration. Each sample was packed into an Al holder in the range of 5–50 (2Θ).

[3] = parameters: method as in earlier work; details: cited from earlier work
HIV = system: HIV; parameters: method as in earlier work; details: previous in vitro studies; cited from earlier work
[4] = pKa determination by differential scanning potentiometry (DSP); type: physicochemical
Procedure: In the differential scanning potentiometry (DSP) methodology, acid and basic groups generate negative and positive areas, respectively. Thus, the NH acidic groups of AZT and thymidine were used as reference to validate the DSP, since their pKa values had been previously reported.
A conventional pH-meter (GLP 21, Crison Instrument) with an Ag/AgCl-reference electrode was used. NaOH was added at 0.1 mL increments, with its corresponding pH value recorded from the average of two sample determinations using DMSO as the cosolvent (2.5 %) at 25 °C. The areas were calculated using the Origin 7 program. For the reference graph, an aliquot of 10 mL of HCl (0.1 mol L^−1) and 0.5 mL of DMSO was titrated with NaOH (0.1 mol L^−1); for the sample graphs, aliquots (10 mL) of HCl (0.1 mol L^−1), 0.5 mL DMSO and 0.12 mmol for each compound were titrated with NaOH (0.1 mol L^−1). The volume of each solution was completed to 20 mL with Milli-Q water before titration.

[5] = cited from earlier work
[6] = X-Ray Powder Diffractometry (XRPD); type: physicochemical; details: around 20 °C, CuKα radiation
Procedure: XRPD analysis provides an accurate identification of crystalline and amorphous solid phases. The XRPD patterns of AZT and their derivatives 2–6 are depicted in Figure 4.
as §1

[7] = parameters: method as in earlier work; details: cited from earlier work; remark: listed apart in the source
[8] = aqueous HCl solution with DMSO cosolvent, titrated with NaOH, DSP, DMSO 2.5 % cosolvent, 25 °C, calculated from area with eq. 2, read-out: pKa, NH group of the pyrimidinic base, experimental value
[9] = aqueous HCl solution with DMSO cosolvent, titrated with NaOH, DSP, DMSO 2.5 % cosolvent, 25 °C, calculated from area with eq. 2, read-out: pKa, aliphatic amine, experimental value

Compound Cc1ccc(S(=O)(=O)OC[C@H]2O[C@@H](n3cc(C)c(=O)[nH]c3=O)C[C@@H]2N=[N+]=[N-])cc1 [compound 2] has a half-life at 0.5 mM ([1]; pH 7.4, 60 °C) of 12.1 h, a half-life at 0.5 mM ([1]; pH 9.4, 60 °C) of 0.775 h and a half-life at 0.5 mM ([1]; pH 13.2, 60 °C) of 0.765 h. For the same compound, the Aqueous stability ([1]; pH 1.0, 60 °C) was “Stable^a”, the “Degradation rate constant, kobs” value ([1]; pH 7.4, 60 °C) was 0.94 10^−3 min^−1 and the “Degradation rate constant, kobs” value ([1]; pH 9.4, 60 °C) was 14.9 10^−3 min^−1. For the same compound, the “Degradation rate constant, kobs” value ([1]; pH 13.2, 60 °C) was 15.1 10^−3 min^−1, the “DSC exothermic decomposition peak” value [2] was “above 150 °C” and the “stability in rat plasma” value [3] was “stable”. The anti-HIV activity (HIV) was “lacked the necessary activity”.

In the case of Cc1cn([C@H]2C[C@H](O)[C@@H](CO)O2)c(=O)[nH]c1=O [Thymidine, reference compound], the pKa ([4]; pKa, NH group of the pyrimidinic base, experimental value) is reported as 9.45.

For Cc1cn([C@H]2C[C@H](N=[N+]=[N-])[C@@H](COC(=O)N3CCCCC3)O2)c(=O)[nH]c1=O [compound 4], the pKa [4, 8] was 8.61, the half-life at 0.5 mM ([1]; pH 13.2, 60 °C) was 11.2 h and the Aqueous stability ([1]; pH 1.0, 60 °C) was “Stable^a”. The Aqueous stability ([1]; pH 7.4, 60 °C) was “Stable^a”, the Aqueous stability ([1]; pH 9.4, 60 °C) was “Stable^a” and the “Degradation rate constant, kobs” value ([1]; pH 13.2, 60 °C) was 1.04 10^−3 min^−1. For the same compound, the kobs ([1]; pH 13.2, 60 °C) was 0.00104 min⁻¹ and the “DSC exothermic decomposition peak” value [2] was “above 150 °C”.

With Cc1cn([C@H]2C[C@H](N=[N+]=[N-])[C@@H](CO)O2)c(=O)[nH]c1=O [compound 1, 3′-Azido-3′-deoxythymidine, reference compound] the pKa ([4]; DSP, DMSO 2.5 % cosolvent, 25 °C, calculated from area with eq. 2, read-out: pKa, NH group of the pyrimidinic base, experimental value) was 9.42, the Aqueous stability ([1]; pH 1.0, 60 °C) was “Stable^a” and the “aqueous stability over the studied pH media, in words” value ([1]; pH 1.0–13.2) was “stable at the studied pH media”. The Aqueous stability ([1]; pH 7.4, 60 °C) was “Stable^a”, the Aqueous stability ([1]; pH 9.4, 60 °C) was “Stable^a” and the Aqueous stability ([1]; pH 13.2, 60 °C) was “Stable^a”. The “pKa, NH acidic group, previously reported experimental value” [5] was 9.68.

With Cc1cn([C@H]2C[C@H](N=[N+]=[N-])[C@@H](COC(=O)NCCN3CCNCC3)O2)c(=O)[nH]c1=O [compound 6] the pKa [4, 9] was 9.03, the half-life at 0.5 mM ([1]; pH 13.2, 60 °C) was 6.48 h and the Aqueous stability ([1]; pH 1.0, 60 °C) was “Stable^a”. For the same compound, the Aqueous stability ([1]; pH 7.4, 60 °C) was “Stable^a”, the Aqueous stability ([1]; pH 9.4, 60 °C) was “Stable^a” and the “Degradation rate constant, kobs” value ([1]; pH 13.2, 60 °C) was 1.96 10^−3 min^−1. The kobs ([1]; pH 13.2, 60 °C) was 0.00196 min⁻¹, the “DSC exothermic decomposition peak” value [2] was “above 150 °C” and the “glass transition, small DSC endothermic peak (T onset)” value [2] was 42.5 °C. The “solid state by XRPD (crystalline or amorphous)” value [6] was “amorphous”.

Work on Cc1cn2c(nc1=O)OC[C@H]1O[C@@H]2C[C@@H]1N=[N+]=[N-] [compound 3] yielded a half-life at 0.5 mM ([1]; pH 1.0, 60 °C) of 2.13 h, a half-life at 0.5 mM ([1]; pH 7.4, 60 °C) of 79.2 h and a half-life at 0.5 mM ([1]; pH 9.4, 60 °C) of 2.07 h. The “Degradation rate constant, kobs” value ([1]; pH 1.0, 60 °C) was 5.43 10^−3 min^−1, the “Degradation rate constant, kobs” value ([1]; pH 7.4, 60 °C) was 0.15 10^−3 min^−1 and the “Degradation rate constant, kobs” value ([1]; pH 9.4, 60 °C) was 5.58 10^−3 min^−1. For the same compound, the Aqueous stability ([1]; pH 13.2, 60 °C) was “Unstable^d”, the “DSC exothermic decomposition peak” value [2] was 215 °C and the “stability in rat plasma” value ([3]; 30 h of incubation at 37 °C) was “showed stability”. For the same compound, the anti-HIV activity (HIV) was “anti-HIV activity” and the cytotoxicity [7] was “no cytotoxicity”.

In the case of CC[C@H]1OC(=O)[C@H](C)[C@@H](O[C@H]2C[C@@](C)(OC)[C@@H](O)[C@H](C)O2)[C@H](C)[C@@H](O[C@@H]2O[C@H](C)C[C@H](N(C)C)[C@H]2O)[C@](C)(O)C[C@@H](C)C(=O)[C@H](C)[C@@H](O)[C@]1(C)O [erytromycine], the “pKa of compounds used for regression of DSP area vs pKa (eq. 2)” value ([5]; reference values, source not given) is given as 8.80.

With Cc1cn([C@H]2C[C@H](N=[N+]=[N-])[C@@H](COC(=O)N3CCNCC3)O2)c(=O)[nH]c1=O [compound 5] the pKa [4, 8] was 8.66, the pKa [4, 9] was 6.52 and the half-life at 0.5 mM ([1]; pH 13.2, 60 °C) was 3.97 h. The Aqueous stability ([1]; pH 1.0, 60 °C) was “Stable^a”, the Aqueous stability ([1]; pH 7.4, 60 °C) was “Stable^a” and the Aqueous stability ([1]; pH 9.4, 60 °C) was “Stable^a”. The kobs ([1]; pH 13.2, 60 °C) was 0.00323 min⁻¹, the “DSC exothermic decomposition peak” value [2] was “above 150 °C” and the “glass transition, small DSC endothermic peak (T onset)” value [2] was 35.1 °C. The “solid state by XRPD (crystalline or amorphous)” value [6] was “amorphous”.
